Entries after “also recorded” stand apart in the source; their conditions may differ.
Assays:
[1] = target: T1, ATX-β (Homo sapiens, UniProt Q13822); assay: End-point choline release assay, relative inhibition by cannabinoids; type: biochemical; settings: 10 µM compound; for inhibition of ATX-β catalysis: LPC 18:1 200 µM; for ANOVA comparison with CTRL, ATX-β inhibition: significance threshold P 0.005
T1 construct: made in house; host or cells: HEK293-Flp-In cells, protein purified from the culture medium
Method: (§1) We first set out to validate the hypothesis that cannabinoids might bind ATX to modulate its catalytic function. For this, we used various cannabinoids (Fig 1A) at a fixed concentration of 10 µM for each compound in our biochemical validation with LPC 18:1 (200 µM) as substrates in an end-point assay for ATX-β (UniProt ID: Q13822-1) and ATX-γ (UniProt ID: Q13822-3) (Fig 1B and C). […] In addition, we can exclude interference of the cannabinoid compounds in our enzymatically coupled assay, as no difference is detectable in the absence of ATX and LPC (Fig S1B), performed in the presence of choline.
(§2) ATX lysophospholipase D activity was measured using choline release from LPC 18:1 and LPC 16:0 with a choline quantification kit ([Hausmann et al, 2016]) (Fig S6D). 30 nM ATX-β or ATX-γ was incubated with 200 µM LPC 18:1 or LPC 16:0 in a final volume of 100 µl buffer, which contained 50 mM Tris–HCl (pH 8.5) and 150 mM NaCl. The LPC solution was obtained by evaporating a commercial LPC chloroform solution directly in a 1.5-ml Eppendorf tube under vacuum. The dried LPC was then resuspended in water to obtain the mentioned concentration and incubated at 37°C on a shaker for 5–10 min before addition to the microplate. The cannabinoid solutions were prepared from a stock solution in ethanol or other organic solvents. After initial evaporation and/or dilution to obtain the highest concentration mentioned in the assay figure, a twofold dilution was performed in Eppendorf tubes. All the compounds were dissolved in 100% ethanol as a vehicle.
(§3) The experiments for determining relative inhibition for various cannabinoids were performed at 37°C by adding 10 µM of the cannabinoid or endocannabinoid mentioned. Released choline was detected, and the enzyme activity was determined by measuring fluorescence at λex/λem = 540/590 nm in 96-well plates, every 60 s for 50 min minimum using a CLARIOstar plate reader (BMG Labtech). Absolute values were taken at 25 min after visual inspection, and the 0-min baselines were subtracted to account for compound differences. The relative inhibition values were determined using the normalize method in GraphPad Prism (GraphPad Software, Inc.). Measurements have been performed in triplicate with three different protein preparations. All the compounds were controlled for interference of fluorescence and inhibition in the same assay conditions but in the absence of ATX and replacing LPC with choline.

[2] = target: T2, ATX-γ (Homo sapiens, UniProt Q13822); assay: as above; type: biochemical; settings: 10 µM compound; for inhibition of ATX-γ catalysis: LPC 18:1 200 µM; for ANOVA comparison with CTRL, ATX-γ inhibition: significance threshold P 0.005
T2 construct: made in house; host or cells: HEK293-Flp-In cells, protein purified from the culture medium
Method: as §1, §2, §3

[3] = target: CB1; settings: cited from earlier work
[4] = target: CB2; settings: cited from earlier work
[5] = system: LPA1 receptor internalization in HA/LPA1-transfected HeLa cells; assay: hLPA1 receptor internalization assay; type: cell-based, human
[6] = target: T1, ATX-β; assay: Dose–response choline release assay; type: biochemical; settings: LPC 18:1
Method: (§4) ATX lysophospholipase D activity was measured using choline release from LPC 18:1 and LPC 16:0 with a choline quantification kit ([Hausmann et al, 2016]). 30 nM ATX-β or ATX-γ was incubated with 200 µM LPC 18:1 or LPC 16:0 in a final volume of 100 µl buffer, which contained 50 mM Tris–HCl (pH 8.5) and 150 mM NaCl. The LPC solution was obtained by evaporating a commercial LPC chloroform solution directly in a 1.5-ml Eppendorf tube under vacuum. The dried LPC was then resuspended in water to obtain the mentioned concentration and incubated at 37°C on a shaker for 5–10 min before addition to the microplate.
(§5) The experiment for determining apparent EC50 for various cannabinoids was performed at 37°C by adding the cannabinoid in a serial twofold dilution for each concentration. The cannabinoid solutions were prepared from a stock solution in ethanol or other organic solvents. After initial evaporation and/or dilution to obtain the highest concentration mentioned in the assay figure, a twofold dilution was performed in Eppendorf tubes. All the compounds were dissolved in 100% ethanol as a vehicle. […] For CBN, 5-DMH-CBD, and CBD, the starting concentration was 50 µM, 150 µM, and 2 mM, respectively. Released choline was detected, and the enzyme activity was determined by measuring fluorescence at λex/λem = 540/590 nm in 96-well plates, every 60 s for 50 min minimum using a CLARIOstar plate reader (BMG Labtech). Initial velocities were taken between 19 and 31 min after visual inspection. The apparent EC50 values were determined using the non-linear regression analysis method (fit: [inhibitor] versus response [three parameter]) in GraphPad Prism (GraphPad Software, Inc.). However, it should be mentioned that the relative concentrations of the different lipids/inhibitors in their physical form as micelles, liposomes, protein-bound, or aggregates are unknown ([Carman et al, 1995]). These uncertainties are widely known, and we provide here an apparent EC50 for consideration. Measurements have been performed in triplicate with three different protein preparations. […]

[7] = target: T2, ATX-γ; assay: Dose–response choline release assay; type: biochemical; settings: LPC 18:1
Method: as §4, §5

[8] = ref Hunault et al, 2008, cited from earlier work
[9] = target: T2, ATX-γ; assay: Mode of inhibition analysis with increasing LPC 18:1; type: biochemical; set-up: Vmax: unit not given here
[10] = no reference given; cited from earlier work

Row | Compound | inhibition of ATX-β catalysis [1] | ANOVA comparison with CTRL, ATX-β inhibition [1] | inhibition of ATX-γ catalysis [2] | ANOVA comparison with CTRL, ATX-γ inhibition [2] | further results
1 | CCCCC/C=C\C/C=C\C/C=C\C/C=C\CCCC(=O)OC(CO)CO [2-AG, 2-arachidonoylglycerol] | did not affect the catalysis | not significantly inhibited | did not affect the catalysis | not significantly inhibited | –
2 | CCCCCc1cc(O)c2c(c1)OC(C)(C)C1=C2C[C@H](C)CC1 [6a10aTHC, 9(R)-Δ6a,10a-THC] | further increase in the magnitude of inhibition | statistically significant differences | further increase in the magnitude of inhibition | – | –
3 | C=C(C)[C@@H]1CCC(C)=C[C@H]1c1c(O)cc(CCCCC)cc1O [CBD, cannabidiol] | weak inhibition | statistically significant differences | no observable inhibition | – | –
4 | CCCCCn1cc(C(=O)c2cccc3ccccc23)c2ccccc21 [JWH018] | did not influence the catalytic activity | not significantly inhibited | did not influence the catalytic activity | not significantly inhibited | Ki ([3]; CB1, ref Aung et al, 2000): 9 ± 8 nM; Ki ([4]; CB2, ref Aung et al, 2000): 2.9 ± 2.7 nM
5 | CCCCCc1cc(O)c2c(c1)OC(C)(C)[C@@H]1CCC(C)=C[C@@H]21 [THC, Δ^9-trans-tetrahydrocannabinol] | more than 50% | statistically significant differences | more than 50% | – | LPA1 internalization ([5]; 30 nM ATX, 150 µM LPC 18:1, 1 µM THC, paired t test P = 0.0008): significantly reduced LPA1 internalization; also recorded: reduced the number of endosomes internalized; LPA1 internalization ([5]; LPA in the presence of THC): LPA1 receptors were internalized; LPA1 internalization ([5]; THC alone (1 µM)): No internalization; inhibition of ATX-LPA signaling (LPA1 internalization) ([5]; higher LPC concentration, 400 µM LPC, P = 0.0068): not abolished; binding to CB1 ([3]; ref Pertwee, 2008): low nanomolar regime; magnitude of inhibition (maximum inhibition) [6]: around 60%; type of inhibitor [6]: partial inhibitor; type of inhibitor [7]: partial inhibitor; binding to CB2 ([4]; ref Pertwee, 2008): low nanomolar regime; mean THC peak in serum ([8]; 69.4-mg THC dose, SD = 106.8): 190.4 ng/mL; serum concentration of THC, lower end of range in molar units ([8]; after a 49.1-mg THC dose, equals 59 ng/ml): 190 nM; serum concentration of THC, upper end of range in molar units ([8]; after a 49.1-mg THC dose, equals 421 ng/ml): 1300 nM; Vmax ([9]; 0.35 µM THC (8.5 without THC)): 7.3; Km ([9]; 0.35 µM THC (10.1 without THC)): 19.6 µM; Vmax ([9]; 0.7 µM THC (8.5 without THC)): 6.3; Km ([9]; 0.7 µM THC (10.1 without THC)): 29.9 µM; Vmax ([9]; 1.4 µM THC (8.5 without THC)): 5.0; Km ([9]; 1.4 µM THC (10.1 without THC)): 31.5 µM; mode of inhibition ([9]; ATX-γ, LPC 18:1): mixed-type inhibition; also recorded: mixed-type inhibitor; bound to plasma proteins [10]: 95–97%
6 | CCCCCc1cc2c(c(O)c1C(=O)O)[C@@H]1C=C(C)CC[C@H]1C(C)(C)O2 [Tetrahydrocannabinolic acid, tetrahydrocannabinolic acid] | < 50% | statistically significant differences | < 50% | – | –
7 | CCCCC/C=C\C/C=C\C/C=C\C/C=C\CCCC(=O)NCCO [anandamide] | did not affect the catalysis | not significantly inhibited | did not affect the catalysis | not significantly inhibited | –
8 | lysophosphatidic acid [LPA] | – | – | – | – | LPA1 internalization ([5]; LPA treatment of cells (1 µM LPA 18:1)): high LPA1 receptor internalization

— article PMC9834664, “Linking medicinal cannabis to autotaxin–lysophosphatidic acid signaling” (Life Science Alliance, 2023)
